Where two headings read alike, the source gives them in different places.
How the values were obtained:
[1] = tested on: Bmi-1 protein; assay: Sandwich ELISA Assay (Bmi-1 protein level in HT-1080 cells after compound treatment); type: cell-based
How it was run: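 Sandwich ELISA quantified Bmi-1 protein against recombinant standard (125–8000 pg/mL), with lysates captured overnight at 4 °C and signal by HRP/TMB at 450 nm (570 nm reference). Lysates came from HT-1080 cells incubated 40–48 h with test compounds in 0.5% DMSO.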

[2] = read-out: ELISA EC50 value for Bmi-1 protein, Table 1, Bmi-1 sandwich ELISA
[3] = Table 1, Bmi-1 sandwich ELISA, read-out: ELISA EC50 value for Bmi-1 protein

Compound	melting point [°C]	EC50 [1, 2] [nM]	EC50 [1, 3] [nM]
CS(=O)(=O)c1ccc(Nc2cncc(-c3c(C(F)(F)F)nc4ccccn34)n2)cc1 [compound 68, N-[4-(methylsulfonyl)phenyl]-6-[2-(trifluoromethyl)imidazo[1,2-a]pyridin-3-yl]pyrazin-2-amine]	256 to 258	100 to 3000	
CCn1nc(C)c(-c2cncc(Nc3ccc(OC(F)(F)F)cc3)n2)c1C [compound 84, 6-(1-ethyl-3,5-dimethyl-1H-pyrazol-4-yl)-N-[4-(trifluoromethoxy)phenyl]pyrazin-2-amine]	142 to 143		1 to 10
FC(F)(F)Oc1ccc(Nc2cncc(-c3cccc4nc(C5CC5)cn34)n2)cc1 [compound 87, 6-(2-cyclopropylimidazo[1,2-a]pyridin-5-yl)-N-[4-(trifluoromethoxy)phenyl]pyrazin-2-amine]	225 to 227		100 to 3000
FC(F)(F)c1ccc(Nc2cncc(-c3cccc4nc(C5CC5)cn34)n2)cc1 [compound 89, 6-(2-cyclopropylimidazo[1,2-a]pyridin-5-yl)-N-[4-(trifluoromethyl)phenyl]pyrazin-2-amine]	266 to 268		100 to 3000
FC1(F)Oc2ccc(Nc3cncc(-c4c(C(F)(F)F)nc5ccccn45)n3)cc2O1 [compound 91, N-(2,2-difluoro-1,3-benzodioxol-5-yl)-6-[2-(trifluoromethyl)imidazo[1,2-a]pyridin-3-yl]pyrazin-2-amine]	232 to 234		100 to 3000
Cc1csc(Nc2cncc(-c3c(C(F)(F)F)nc4ccccn34)n2)n1 [compound 96, N-(4-methyl-1,3-thiazol-2-yl)-6-[2-(trifluoromethyl)imidazo[1,2-a]pyridin-3-yl]pyrazin-2-amine]	317 to 319		100 to 3000
COc1ccc(Nc2cccc(-c3c(C(F)(F)F)nc4ccc(OC)cn34)n2)cc1 [compound 104, N-(4-methoxyphenyl)-6-[6-methoxy-2-(trifluoromethyl)imidazo[1,2-a]pyridin-3-yl]pyridin-2-amine]	139 to 140		10 to 100
FC(F)(F)c1ccc(Nc2cncc(-c3cccc4nc(C5CCC5)cn34)n2)cc1 [compound 114, 6-(2-cyclobutylimidazo[1,2-a]pyridin-5-yl)-N-[4-(trifluoromethyl)phenyl]pyrazin-2-amine]	288 to 290		100 to 3000
FC(F)Oc1ccc(Nc2cncc(-c3cccc4nc(C5CCC5)cn34)n2)cc1 [compound 115, 6-(2-cyclobutylimidazo[1,2-a]pyridin-5-yl)-N-[4-(difluoromethoxy)phenyl]pyrazin-2-amine]	252 to 253		10 to 100
COc1ccc(Nc2cncc(-c3cccc4nc(C5CCC5)cn34)n2)cc1 [compound 116, 6-(2-cyclobutylimidazo[1,2-a]pyridin-5-yl)-N-(4-methoxyphenyl)pyrazin-2-amine]	223 to 225		10 to 100
FC1(F)Oc2ccc(Nc3cncc(-c4cccc5nc(C6CCC6)cn45)n3)cc2O1 [compound 117, 6-(2-cyclobutylimidazo[1,2-a]pyridin-5-yl)-N-(2,2-difluoro-1,3-benzodioxol-5-yl)pyrazin-2-amine]	302 to 305		100 to 3000
Cc1noc(C)c1-c1cncc(Nc2ccc(C(F)(F)F)cc2)n1 [compound 127, 6-(3,5-dimethyl-1,2-oxazol-4-yl)-N-[4-(trifluoromethyl)phenyl]pyrazin-2-amine]	208 to 210	10 to 100	
Cc1nn(C)c(C)c1-c1cncc(Nc2ccc(C(F)(F)F)cc2)n1 [compound 128, N-[4-(trifluoromethyl)phenyl]-6-(1,3,5-trimethyl-1H-pyrazol-4-yl)pyrazin-2-amine]	201 to 202		1 to 10
FC(F)(F)c1ccc(Nc2cncc(-c3c(C4CC4)nc4ccccn34)n2)cc1 [compound 129, 6-(2-cyclopropylimidazo[1,2-a]pyridin-3-yl)-N-[4-(trifluoromethyl)phenyl]pyrazin-2-amine]	215 to 217	1 to 10	
FC(F)Oc1ccc(Nc2cncc(-c3c(C4CC4)nc4ccccn34)n2)cc1 [compound 130, 6-(2-cyclopropylimidazo[1,2-a]pyridin-3-yl)-N-[4-(difluoromethoxy)phenyl]pyrazin-2-amine]	208 to 210		1 to 10
FC(F)(F)c1ccc(Nc2cncc(-c3c(C4CCC4)nc4ccccn34)n2)cc1 [compound 131, 6-(2-cyclobutylimidazo[1,2-a]pyridin-3-yl)-N-[4-(trifluoromethyl)phenyl]pyrazin-2-amine]	218 to 219		1 to 10
Cc1nn(C)c(C)c1-c1cccc(Nc2ccc(C(F)(F)F)cc2)n1 [compound 145, N-[4-(trifluoromethyl)phenyl]-6-(1,3,5-trimethyl-1H-pyrazol-4-yl)pyridin-2-amine]	48 to 50		10 to 100

Compound	melting point [°C]	EC50 [1, 2] [nM]	EC50 [1, 3] [nM]
Cc1nn(C)c(C)c1-c1cccc(Nc2ccc(OC(F)F)cc2)n1 [compound 146, N-[4-(difluoromethoxy)phenyl]-6-(1,3,5-trimethyl-1H-pyrazol-4-yl)pyridin-2-amine]	71 to 72		10 to 100
Cc1cnc(Nc2cccc(-c3c(C(F)(F)F)nc4ccccn34)n2)s1 [compound 147, N-(5-methyl-1,3-thiazol-2-yl)-6-[2-(trifluoromethyl)imidazo[1,2-a]pyridin-3-yl]pyridin-2-amine]	270 to 271		100 to 3000
Cc1csc(Nc2cccc(-c3c(C(F)(F)F)nc4ccccn34)n2)n1 [compound 148, N-(4-methyl-1,3-thiazol-2-yl)-6-[2-(trifluoromethyl)imidazo[1,2-a]pyridin-3-yl]pyridin-2-amine]	259 to 261		10 to 100
Cc1nc(Nc2cccc(-c3c(C(F)(F)F)nc4ccccn34)n2)sc1C [compound 149, N-(4,5-dimethyl-1,3-thiazol-2-yl)-6-[2-(trifluoromethyl)imidazo[1,2-a]pyridin-3-yl]pyridin-2-amine]	227 to 228		100 to 3000
FC(F)(F)c1nc2ccccn2c1-c1cncc(Nc2ccc(C3CC3)cc2)n1 [compound 165, N-(4-cyclopropylphenyl)-6-[2-(trifluoromethyl)imidazo[1,2-a]pyridin-3-yl]pyrazin-2-amine]	317 to 320		1 to 10
CCn1nc(C)c(-c2cncc(Nc3ccc(C(F)(F)F)cc3)n2)c1C [compound 175, 6-(1-ethyl-3,5-dimethyl-1H-pyrazol-4-yl)-N-[4-(trifluoromethyl)phenyl]pyrazin-2-amine]	78 to 79	1 to 10	
CCS(=O)(=O)n1nc(C)c(-c2cncc(Nc3ccc(C(F)(F)F)cc3)n2)c1C [compound 176, 6-[1-(ethylsulfonyl)-3,5-dimethyl-1H-pyrazol-4-yl]-N-[4-(trifluoromethyl)phenyl]pyrazin-2-amine]	70 to 71		10 to 100
COC(=O)c1ccc2nc(C(F)(F)F)c(-c3cncc(Nc4ccc(OC(F)F)cc4)n3)n2c1 [compound 178, methyl 3-(6-{[4-(difluoromethoxy)phenyl]amino}pyrazin-2-yl)-2-(trifluoromethyl)imidazo[1,2-a]pyridine-6-carboxylate]	227 to 229		100 to 3000
CCc1nc(C)cn1-c1cncc(Nc2ccc(C(F)(F)F)cc2)n1 [compound 179, 6-(2-ethyl-4-methyl-1H-imidazol-1-yl)-N-[4-(trifluoromethyl)phenyl]pyrazin-2-amine]	207 to 208	100 to 3000	
CCc1nc(C)cn1-c1cncc(Nc2ccc(OC(F)F)cc2)n1 [compound 180, N-[4-(difluoromethoxy)phenyl]-6-(2-ethyl-4-methyl-1H-imidazol-1-yl)pyrazin-2-amine]	168 to 169		100 to 3000
Cc1nc2ccccn2c1-c1cncc(Nc2ccc(C(F)(F)F)cc2)n1 [compound 202, 6-(2-methylimidazo[1,2-a]pyridin-3-yl)-N-[4-(trifluoromethyl)phenyl]pyrazin-2-amine]	180 to 182		< 1
Cc1nc2cc(F)ccc2n1-c1cncc(Nc2ccc(C(F)(F)F)cc2)n1 [compound 204, 6-(5-fluoro-2-methyl-1H-benzimidazol-1-yl)-N-[4-(trifluoromethyl)phenyl]pyrazin-2-amine]	272 to 275		10 to 100
COc1ccc2nc(C)c(-c3cc(C#N)cc(Nc4ccc(F)cc4)n3)n2c1 [compound 674, 2-[(4-fluorophenyl)amino]-6-(6-methoxy-2-methylimidazo[1,2-a]pyridin-3-yl)pyridine-4-carbonitrile]			100 to 3000
COc1ccc2nc(C)c(-c3cc(C#N)cc(Nc4ccccc4)n3)n2c1 [compound 675, 2-(6-methoxy-2-methylimidazo[1,2-a]pyridin-3-yl)-6-(phenylamino)pyridine-4-carbonitrile]			10 to 100
COc1ccc2nc(C)c(-c3cc(C#N)cc(Nc4ccc(Cl)cc4)n3)n2c1 [compound 676, 2-[(4-chlorophenyl)amino]-6-(6-methoxy-2-methylimidazo[1,2-a]pyridin-3-yl)pyridine-4-carbonitrile]			10 to 100
COc1ccc2nc(C)c(-c3cc(C#N)cc(Nc4ccc(OC(F)F)cc4)n3)n2c1 [compound 677, 2-{[4-(difluoromethoxy)phenyl]amino}-6-(6-methoxy-2-methylimidazo[1,2-a]pyridin-3-yl)pyridine-4-carbonitrile]			100 to 3000
Cc1nc2cc(F)c(F)cc2n1-c1cncc(Nc2ccc(C(F)(F)F)cc2)n1 [compound 683, 6-(5,6-difluoro-2-methyl-1H-benzimidazol-1-yl)-N-[4-(trifluoromethyl)phenyl]pyrazin-2-amine]			10 to 100

— patent US10584115B2, “Substituted pyridine and pyrazine BMI-1 inhibitors” (PTC Therapeutics, Inc., priority 2013, dated 2020)
